Experimental data taken from publication PMC7397174, “4-Arylthieno[2,3-b]pyridine-2-carboxamides Are a New Class of Antiplasmodial Agents” (Molecules, 2020).
Structures can show the parent of a compound that is named as a salt.

What was measured:
[1] = tested on: erythrocytic forms of P. falciparum (strain 3D7); assay: Viability screening of antiplasmodial activity (SYBR-gold DNA quantification, 96 h); assay type: cell-based, Plasmodium falciparum; conditions: for activity at 0.3 µM / activity at 3 µM / IC50: Plasmodium falciparum; for activity at 0.3 µM / activity at 3 µM: 96 h, strain 3D7, calculated on DMSO controls; for activity at 0.3 µM: read-out: Parasitemia (3D7) at 0.3 µM [%]; for activity at 3 µM: read-out: Parasitemia (3D7) at 3 µM [%]; for SI (Selectivity index for 3D7 erythrocytic forms versus HEK293 cells): 3D7 versus HEK293 cells; for IC50: 3D7, strain 3D7, erythrocytic forms; for IC50 (3D7) [nM]: strain 3D7, erythrocytic forms; for activity at 3 µM / antiplasmodial activity at the concentration investigated (in words): 3 µM
in vitro = assay type: cell-based, human; conditions: human, HEK293T Viability at 30 µM [%]
Method: Cytotoxic effects of test compounds on eukaryotic cells were investigated using a HEK293T cell viability assay. First, the cell density of a HEK293T culture was determined. […] The supernatant was then aspirated and fresh culture medium was added to 200 μL into which the test compounds were previously added. All substances were previously dissolved in DMSO. […] The viability of the cells was then examined by adding PrestoBlue® Cell Viability Agent (Invitrogen, Carlsbad, CA, USA). The supernatant was removed, 10% PrestoBlue® was added in preheated PBS and the culture was incubated for 30 min at 37 °C. In cells with an active metabolism, the PrestoBlue dye is reduced, causing it to fluorescence. The fluorescence (λex = 560 nm, λem = 590 nm) was measured in an EnVision Multilable Plate Reader (Perkin Elmer, Waltham, MA, USA; integration time 0.1 sec/well).

rPfGSK-3 = rPfGSK-3 (Plasmodium falciparum, UniProt O77344); assay: KinaseGlo Plus assay for inhibition of PfGSK-3; assay type: biochemical; conditions: 10 µM; remaining activity, calculated on DMSO controls; Table 3; read-out: rPfGSK-3 Activity at 10 µM [%]
Chain of rPfGSK-3 (O77344 entry or part of it): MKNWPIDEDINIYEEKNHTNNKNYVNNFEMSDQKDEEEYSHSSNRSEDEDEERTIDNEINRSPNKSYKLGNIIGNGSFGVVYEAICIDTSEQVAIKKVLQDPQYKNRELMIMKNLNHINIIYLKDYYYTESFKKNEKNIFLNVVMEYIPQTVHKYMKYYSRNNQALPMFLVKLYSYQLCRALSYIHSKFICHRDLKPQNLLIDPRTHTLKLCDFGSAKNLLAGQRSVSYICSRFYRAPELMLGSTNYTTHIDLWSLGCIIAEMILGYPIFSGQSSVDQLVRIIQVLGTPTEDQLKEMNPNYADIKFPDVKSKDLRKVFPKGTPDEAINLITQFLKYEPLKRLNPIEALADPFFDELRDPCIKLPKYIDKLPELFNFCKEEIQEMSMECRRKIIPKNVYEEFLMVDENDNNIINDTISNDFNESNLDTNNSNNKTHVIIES

Structure (SMILES)	activity at 0.3 µM [1]	activity at 3 µM [1]	viability at 48 h, 30 µM (in vitro)	remaining activity at 10 µM (rPfGSK-3)	SI (Selectivity index for 3D7 erythrocytic forms versus HEK293 cells) [1]	IC50 [1]	IC50 (3D7) [nM] [1]	antiplasmodial activity at the concentration investigated (in words) [1]
Cc1cccc(-c2c(C#N)c(N)nc3sc(C(=O)NC(C)C)c(N)c23)c1 [Compound 9l, 3,6-Diamino-5-cyano-N-isopropyl-4-(3-methylphenyl)thieno[2,3-b]pyridine-2-carboxamide]	80.6 ± 22%	79.8 ± 20.3%	70.6 ± 23%	54.1 ± 15.5%	–	–	–	–
CC(C)(C)OC(=O)N1CCN(c2ccc(-c3c(C#N)c(N)nc4sc(C(=O)Nc5cccc(Cl)c5)c(N)c34)c(Cl)c2)CC1 [Compound 9p, tert-Butyl 4-(3-chloro-4-{3,6-diamino-2-[(3-chlorophenyl)carbamoyl]-5-cyanothieno[2,3-b]pyridin-4-yl}phenyl)piperazine-1-carboxylate]	48.3 ± 18%	5.4 ± 3.2%	104 ± 14.1%	111 ± 12.1%	–	–	–	–
N#Cc1c(N)nc2sc(C(=O)Nc3cccc(Cl)c3)c(N)c2c1-c1ccc(N2CCNCC2)cc1Cl [Compound 9q, 3,6-Diamino-4-[2-chloro-4-(piperazin-1-yl)phenyl]-N-(3-chlorophenyl)-5-cyanothieno[2,3-b]pyridine-2-carboxamide hydrochloride]	6.5 ± 3.1%	4.9 ± 3%	-13.1 ± 5.4%	72.6 ± 12.8%	–	–	–	–
N#Cc1c(N)nc2sc(C(=O)Nc3cccc(Cl)c3)c(N)c2c1-c1ccc(N2CCOCC2)cc1Cl [Compound 9r, 3,6-Diamino-4-(2-chloro-4-morpholinophenyl)-N-(3-chlorophenyl)-5-cyanothieno[2,3-b]pyridine-2carboxamide]	45.7 ± 17.2%	2.8 ± 3.6%	105 ± 10%	108 ± 16.5%	–	–	–	–
N#Cc1c(N)nc2sc(C(=O)Nc3cccc(Cl)c3)c(N)c2c1-c1ccc(N2CCCC2)cc1Cl [Compound 9s, 3,6-Diamino-4-[2-chloro-4-(pyrrolidin-1-yl)phenyl]-N-(3-chlorophenyl)-5-cyanothieno[2,3-b]pyridine-2-carboxamide]	78.3 ± 15.2%	4.8 ± 5%	114 ± 40.3%	113 ± 15.9%	–	–	–	–
N#Cc1c(N)nc2sc(C(=O)Nc3ccccc3Cl)c(N)c2c1-c1ccc(N2CCCC2)cc1Cl [Compound 9t, 3,6-Diamino-4-[2-chloro-4-(pyrrolidin-1-yl)phenyl]-N-(2-chlorophenyl)-5-cyanothieno[2,3-b]pyridine-2-carboxamide]	68.9 ± 27.3%	60.6 ± 23.7%	99 ± 22.6%	105 ± 6.6%	–	–	–	–
N#Cc1c(N)nc2sc(C(=O)Nc3ccccc3Cl)c(N)c2c1-c1ccc(N2CCOCC2)cc1Cl [Compound 9u, 3,6-Diamino-4-(2-chloro-4-morpholinophenyl)-N-(2-chlorophenyl)-5-cyanothieno[2,3-b]pyridine-2-carboxamide]	74.5 ± 21.2%	53.1 ± 29.6%	87 ± 26.7%	110 ± 6.2%	–	–	–	–
N#Cc1c(N)nc2sc(C(=O)Nc3ccc(Cl)cc3)c(N)c2c1-c1ccc(N2CCOCC2)cc1Cl [Compound 9v, 3,6-Diamino-4-(2-chloro-4-morpholinophenyl)-N-(4-chlorophenyl)-5-cyanothieno[2,3-b]pyridine-2-carboxamide]	51.8 ± 38.6%	6.2 ± 6.1%	92.3 ± 18.8%	91.8 ± 18.7%	>20	1470 nM	–	–
CN(CCNC(=O)OC(C)(C)C)c1ccc(-c2c(C#N)c(N)nc3sc(C(=O)Nc4cccc(Cl)c4)c(N)c23)c(Cl)c1 [Compound 9w, tert-Butyl {2-[(3-chloro-4-{3,6-diamino-2-[(3-chlorophenyl)carbamoyl]-5-cyanothieno[2,3-b]pyridin-4-yl}phenyl)(methyl)amino]ethyl}carbamate]	50.1 ± 37.9%	3.6 ± 2.4%	76.1 ± 17.3%	95.3 ± 8.6%	>30	860 nM	–	–
N#Cc1c(N)nc2sc(C(=O)Nc3ccc(F)cc3)c(N)c2c1-c1ccc(N2CCOCC2)cc1Cl [Compound 9x, 3,6-Diamino-4-(2-chloro-4-morpholinophenyl)-5-cyano-N-(4-fluorophenyl)thieno[2,3-b]pyridine-2-carboxamide]	59 ± 43.6%	8.7 ± 6.6%	86.1 ± 16%	90.2 ± 8.9%	–	–	–	–
CN(CCNC(=O)OC(C)(C)C)c1ccc(-c2c(C#N)c(N)nc3sc(C(=O)Nc4ccc(Cl)cc4)c(N)c23)c(Cl)c1 [Compound 9y, tert-Butyl {2-[(3-chloro-4-{3,6-diamino-2-[(4-chlorophenyl)carbamoyl]-5-cyanothieno[2,3-b]pyridin-4-yl}phenyl)(methyl)amino]ethyl}carbamate]	36.6 ± 27.4%	5.5 ± 4.6%	81.7 ± 19.6%	110 ± 7.7%	>40	699 nM	–	–
N#Cc1c(N)nc2sc(C(=O)Nc3ccc(Cl)cc3)c(N)c2c1-c1ccc(N2CCCC2)cc1Cl [Compound 9z, 3,6-Diamino-4-[2-chloro-4-(pyrrolidin-1-yl)phenyl]-N-(4-chlorophenyl)-5-cyanothieno[2,3-b]pyridine-2-carboxamide]	73.1 ± 22.1%	6.4 ± 5.8%	91.9 ± 13.6%	109 ± 4.9%	–	–	–	–
CC(C)(C)OC(=O)N1CCN(c2ccc(-c3c4c(nc5sc(C(=O)Nc6ccc(Cl)cc6)c(N)c35)CCC4)c(Cl)c2)CC1 [Compound 17a, tert-Butyl 4-(4-{3-amino-2-[(4-chlorophenyl)carbamoyl]-6,7-dihydro-5H-cyclopenta[b]thieno[3,2-e]-pyridin-4-yl}-3-chlorophenyl)piperazine-1-carboxylate]	50.5 ± 26.3%	8 ± 10.2%	93.9 ± 6.5%	102 ± 4%	–	–	–	–
Cc1cccc(-c2c3c(nc4sc(C(=O)Nc5ccc(Cl)cc5)c(N)c24)CCC3)c1 [Compound 17f, 3-Amino-N-(4-chlorophenyl)-4-(3-methylphenyl)-6,7-dihydro-5H-cyclopenta[b]thieno[3,2-e]pyridine-2-carboxamide]	9.1 ± 16.1%	1 ± 14.9%	72.4 ± 23.4%	103 ± 6.2%	>100	19.2 nM	two-digit nanomolar range	–
Cc1nc2sc(C(=O)Nc3ccc(Cl)cc3)c(N)c2c(-c2ccccc2)c1C(=O)OC(C)(C)C [Compound 17g, tert-Butyl 3-amino-2-[(4-chlorophenyl)carbamoyl]-6-methyl-4-phenylthieno[2,3-b]pyridine-5-carboxylate]	11.7 ± 10.1%	9.8 ± 15.1%	56.9 ± 31.3%	101 ± 5.5%	>100	25.3 nM	two-digit nanomolar range	–
Cc1cccc(-c2c(C(=O)OC(C)(C)C)c(C)nc3sc(C(=O)Nc4ccc(Cl)cc4)c(N)c23)c1 [Compound 17h, tert-Butyl 3-amino-2-[(4-chlorophenyl)carbamoyl]-6-methyl-4-(3-methylphenyl)thieno[2,3-b]pyridine-5-carboxylate]	11.8 ± 12.3%	2.3 ± 14.5%	< 50%	106 ± 5.3%	–	–	–	–
Cc1cccc(-c2c(C(=O)O)c(C)nc3sc(C(=O)Nc4ccc(Cl)cc4)c(N)c23)c1 [Compound 17i, 3-Amino-2-[(4-chlorophenyl)carbamoyl]-6-methyl-4-(3-methylphenyl)thieno[2,3-b]pyridine-5-carboxylic acid]	99.8 ± 18.8%	62.4 ± 21.5%	87.6 ± 19.6%	106 ± 8%	–	–	–	only low
Cc1nc2sc(C(=O)Nc3ccc(Cl)cc3)c(N)c2c(-c2ccccc2)c1C(=O)O [Compound 17j, 3-Amino-2-[(4-chlorophenyl)carbamoyl]-6-methyl-4-phenylthieno[2,3-b]pyridine-5-carboxylic acid]	76.1 ± 23.1%	97.1 ± 19.9%	95.8 ± 9.8%	108 ± 10.4%	–	–	–	no
CC(C)(C)OC(=O)N1CCN(c2ccc(-c3c4c(nc5sc(C(=O)Nc6ccc(Cl)cc6)c(N)c35)CCCC4)c(Cl)c2)CC1 [Compound 17k, tert-Butyl 4-(4-{3-amino-2-[(4-chlorophenyl)carbamoyl]-5,6,7,8-tetrahydrothieno[2,3-b]quinolin-4-yl}-3-chlorophenyl)piperazine-1-carboxylate]	30 ± 24.9%	2.6 ± 9%	84.3 ± 14.3%	106 ± 18.7%	–	–	–	–
